In ChEMBL document CHEMBL5046315, “CRCM5484: A BET-BDII Selective Compound with Differential Anti-leukemic Drug Modulation” (J Med Chem, 2022):
The source made the active and inactive calls.

Legend:
Format in all cases: functional, cell-based
[1] = tested on: CCRF-CEM; assay: Potentiation of ponatinib-induced antileukemic activity against human CCRF-CEM cells at 4.3 uM in presence of bone-marrow derived stromal cell-conditioned medium
[2] = tested on: MOLM-14; assay: Potentiation of OTX015-induced antileukemic activity against human MOLM-14 cells at 4.3 uM in presence of bone-marrow derived stromal cell-conditioned medium
[3] = tested on: U-937; assay: Potentiation of nelarabine-induced antileukemic activity against human U-937 cells at 4.3 uM in presence of bone-marrow derived stromal cell-conditioned medium
[4] = tested on: CCRF-CEM; assay: Potentiation of dasatinib-induced antileukemic activity against human CCRF-CEM cells at 4.3 uM in presence of bone-marrow derived stromal cell-conditioned medium
[5] = tested on: MOLM-14; assay: Potentiation of dasatinib-induced antileukemic activity against human MOLM-14 cells at 4.3 uM in presence of bone-marrow derived stromal cell-conditioned medium
[6] = tested on: CCRF-CEM; assay: Potentiation of idasanutlin-induced antileukemic activity against human CCRF-CEM cells at 4.3 uM in presence of bone-marrow derived stromal cell-conditioned medium
[7] = tested on: U-937; assay: Potentiation of selinexor-induced antileukemic activity against human U-937 cells at 4.3 uM in presence of bone-marrow derived stromal cell-conditioned medium
[8] = tested on: MOLM-14; assay: Potentiation of panobinostat-induced antileukemic activity against human MOLM-14 cells at 4.3 uM in presence of bone-marrow derived stromal cell-conditioned medium
[9] = tested on: CCRF-CEM; assay: Potentiation of SGI-110-induced antileukemic activity against human CCRF-CEM cells at 4.3 uM in presence of bone-marrow derived stromal cell-conditioned medium
[10] = tested on: U-937; assay: Potentiation of OTX015-induced antileukemic activity against human U-937 cells at 4.3 uM in presence of bone-marrow derived stromal cell-conditioned medium
[11] = tested on: Acute myeloid leukemic cell; assay: Potentiation of birinapant-induced antileukemic activity against patient derived mouse xenografted acute myeloid leukemic cells assessed as cell viability at 2 uM measured after 72 to 144 hrs by Cell-titre glo luminescent assay; settings: Homo sapiens, time lower […], time upper 144.0 hrs
[12] = tested on: U-937; assay: Potentiation of cyclopamine-induced antileukemic activity against human U-937 cells at 4.3 uM in presence of bone-marrow derived stromal cell-conditioned medium
[13] = tested on: CCRF-CEM; assay: Potentiation of olaparid-induced antileukemic activity against human CCRF-CEM cells at 4.3 uM in presence of bone-marrow derived stromal cell-conditioned medium
[14] = tested on: CCRF-CEM; assay: Potentiation of cyclopamine-induced antileukemic activity against human CCRF-CEM cells at 4.3 uM in presence of bone-marrow derived stromal cell-conditioned medium
[15] = tested on: MOLM-14; assay: Potentiation of sunitinib-induced antileukemic activity against human MOLM-14 cells at 4.3 uM in presence of bone-marrow derived stromal cell-conditioned medium
[16] = tested on: CCRF-CEM; assay: Potentiation of dexamethasone-induced antileukemic activity against human CCRF-CEM cells at 4.3 uM in presence of bone-marrow derived stromal cell-conditioned medium
[17] = tested on: CCRF-CEM; assay: Potentiation of venetoclax-induced antileukemic activity against human CCRF-CEM cells at 4.3 uM in presence of bone-marrow derived stromal cell-conditioned medium
[18] = tested on: MOLM-14; assay: Potentiation of rigosertib-induced antileukemic activity against human MOLM-14 cells at 4.3 uM in presence of bone-marrow derived stromal cell-conditioned medium
[19] = tested on: U-937; assay: Potentiation of sorafenib-induced antileukemic activity against human U-937 cells at 4.3 uM in presence of bone-marrow derived stromal cell-conditioned medium
[20] = tested on: MOLM-14; assay: Potentiation of selinexor-induced antileukemic activity against human MOLM-14 cells at 4.3 uM in presence of bone-marrow derived stromal cell-conditioned medium
[21] = tested on: U-937; assay: Potentiation of decitabine-induced antileukemic activity against human U-937 cells at 4.3 uM in presence of bone-marrow derived stromal cell-conditioned medium
[22] = tested on: MOLM-14; assay: Potentiation of hydroxychloroquine-induced antileukemic activity against human MOLM-14 cells at 4.3 uM in presence of bone-marrow derived stromal cell-conditioned medium
[23] = tested on: CCRF-CEM; assay: Potentiation of gileritinib-induced antileukemic activity against human CCRF-CEM cells at 4.3 uM in presence of bone-marrow derived stromal cell-conditioned medium
[24] = tested on: CCRF-CEM; assay: Potentiation of quizartinib-induced antileukemic activity against human CCRF-CEM cells at 4.3 uM in presence of bone-marrow derived stromal cell-conditioned medium
[25] = tested on: MOLM-14; assay: Potentiation of EPZ5676-induced antileukemic activity against human MOLM-14 cells at 4.3 uM in presence of bone-marrow derived stromal cell-conditioned medium
[26] = tested on: U-937; assay: Potentiation of asparaginase-induced antileukemic activity against human U-937 cells at 4.3 uM in presence of bone-marrow derived stromal cell-conditioned medium
[27] = tested on: MOLM-14; assay: Potentiation of everolimus-induced antileukemic activity against human MOLM-14 cells at 4.3 uM in presence of bone-marrow derived stromal cell-conditioned medium
[28] = tested on: U-937; assay: Potentiation of imatinib-induced antileukemic activity against human U-937 cells at 4.3 uM in presence of bone-marrow derived stromal cell-conditioned medium
[29] = tested on: CCRF-CEM; assay: Potentiation of entinostat-induced antileukemic activity against human CCRF-CEM cells at 4.3 uM in presence of bone-marrow derived stromal cell-conditioned medium
[30] = tested on: MOLM-14; assay: Potentiation of ponatinib-induced antileukemic activity against human MOLM-14 cells at 4.3 uM in presence of bone-marrow derived stromal cell-conditioned medium
[31] = tested on: MOLM-14; assay: Potentiation of niotinib-induced antileukemic activity against human MOLM-14 cells at 4.3 uM in presence of bone-marrow derived stromal cell-conditioned medium
[32] = tested on: CCRF-CEM; assay: Potentiation of -mastinib -induced antileukemic activity against human CCRF-CEM cells at 4.3 uM in presence of bone-marrow derived stromal cell-conditioned medium
[33] = tested on: U-937; assay: Potentiation of rigosertib-induced antileukemic activity against human U-937 cells at 4.3 uM in presence of bone-marrow derived stromal cell-conditioned medium
[34] = tested on: MOLM-14; assay: Potentiation of palbociclib-induced antileukemic activity against human MOLM-14 cells at 4.3 uM in presence of bone-marrow derived stromal cell-conditioned medium
[35] = tested on: MOLM-14; assay: Potentiation of vorinostat-induced antileukemic activity against human MOLM-14 cells at 4.3 uM in presence of bone-marrow derived stromal cell-conditioned medium
[36] = tested on: MOLM-14; assay: Potentiation of seliciclib-induced antileukemic activity against human MOLM-14 cells at 4.3 uM in presence of bone-marrow derived stromal cell-conditioned medium
[37] = tested on: CCRF-CEM; assay: Potentiation of tretinoin-induced antileukemic activity against human CCRF-CEM cells at 4.3 uM in presence of bone-marrow derived stromal cell-conditioned medium
[38] = tested on: CCRF-CEM; assay: Potentiation of vermurafenib-induced antileukemic activity against human CCRF-CEM cells at 4.3 uM in presence of bone-marrow derived stromal cell-conditioned medium
[39] = tested on: CCRF-CEM; assay: Potentiation of nelarabine-induced antileukemic activity against human CCRF-CEM cells at 4.3 uM in presence of bone-marrow derived stromal cell-conditioned medium
[40] = tested on: U-937; assay: Potentiation of vorinostat-induced antileukemic activity against human U-937 cells at 4.3 uM in presence of bone-marrow derived stromal cell-conditioned medium
[41] = tested on: U-937; assay: Potentiation of niotinib-induced antileukemic activity against human U-937 cells at 4.3 uM in presence of bone-marrow derived stromal cell-conditioned medium

Measured: Activity

CC(=O)N1CCc2c(sc3nc(SCC(=O)Nc4cccnc4C)n(Cc4ccco4)c(=O)c23)C1
active: [11]
inactive: all other assays above
